Patent publication US20130302282A1, “Inhibitors of Hepatitis C Virus” (priority 2010, published 2013)
Where two headings read alike, the source gives them in different places.

Columns and labels:
HCV 1a = HCV 1a replicon assay; assay type: cell-based; conditions: Hepatitis C virus; class symbol; cell marked (HCV genotype 1a replicon); read-out: Inhibition of HCV genotype 1a replicon
Procedure: Compounds of the invention can inhibit multiple genotypes of HCV selected but not limited to 1a, 1h, 2a, 3a, and 4a. The EC50s are measured in the corresponding replicon assays that are similar to HCV 1b replicon assay as described above.
(§1) The biological activity against HCV 1b, 1a, or 2a is indicated as being *, **, ***, or ****, which corresponds to EC50 ranges of EC50>1000 nM, 100 nM<EC50≦1000 nM, 10 nM<EC50≦100 nM, or EC50≦10 nM, respectively. The biological activity against HCV NS5B C316Y or S365A mutant is indicated as being […], which corresponds to EC50 ranges of EC50>1000 nM, 200 nM<EC50≦1000 nM, […], respectively.

HCV NS5B S365A mutant = target: T1, HCV NS5B S365A mutant (Hepatitis C virus genotype 1b, UniProt Q9WMX2, S2784A); experiment: Activity against HCV NS5B S365A mutant; assay type: cell-based; conditions: class symbol; S3865A mutant
T1 construct: HCV NS5B C316Y or S365A mutant as indicated; expressed in transfected cells
Procedure: as §1

HCV NS5B C316Y mutant = target: T2, HCV NS5B C316Y mutant (Hepatitis C virus genotype 1b, UniProt Q9WMX2, C2735Y); experiment: Activity against HCV NS5B C316Y mutant; assay type: cell-based; conditions: class symbol; C316Y mutant
T2 construct: HCV NS5B C316Y or S365A mutant as indicated; expressed in transfected cells
Procedure: as §1

[1] = test system: 1b_Huh-Luc/Neo-ET cell line (bicistronic genotype 1b replicon in Huh 7 cells); experiment: HCV 1b replicon assay, luciferase readout; assay type: cell-based, HCV genotype 1b; conditions: Hepatitis C virus
Outline: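 Huh 7 cells persistently carrying a bicistronic genotype 1b luciferase replicon, treated with compound in triplicate the day after plating and incubated 72 h. Luciferase activity measured by Bright-Glo and expressed as percent of untreated control; EC50 from four-parameter fit, repeated several times.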

[2] = Huh-7, 1b_Huh-Luc/Neo-ET cell line, read-out: EC50, half-maximal inhibition of HCV 1b replication
[3] = Huh-7, class symbol, HCV genotype 1b replicon, read-out: Inhibition of HCV genotype 1b replicon

T1 sequence (Q9WMX2 2420-3010 S2784A): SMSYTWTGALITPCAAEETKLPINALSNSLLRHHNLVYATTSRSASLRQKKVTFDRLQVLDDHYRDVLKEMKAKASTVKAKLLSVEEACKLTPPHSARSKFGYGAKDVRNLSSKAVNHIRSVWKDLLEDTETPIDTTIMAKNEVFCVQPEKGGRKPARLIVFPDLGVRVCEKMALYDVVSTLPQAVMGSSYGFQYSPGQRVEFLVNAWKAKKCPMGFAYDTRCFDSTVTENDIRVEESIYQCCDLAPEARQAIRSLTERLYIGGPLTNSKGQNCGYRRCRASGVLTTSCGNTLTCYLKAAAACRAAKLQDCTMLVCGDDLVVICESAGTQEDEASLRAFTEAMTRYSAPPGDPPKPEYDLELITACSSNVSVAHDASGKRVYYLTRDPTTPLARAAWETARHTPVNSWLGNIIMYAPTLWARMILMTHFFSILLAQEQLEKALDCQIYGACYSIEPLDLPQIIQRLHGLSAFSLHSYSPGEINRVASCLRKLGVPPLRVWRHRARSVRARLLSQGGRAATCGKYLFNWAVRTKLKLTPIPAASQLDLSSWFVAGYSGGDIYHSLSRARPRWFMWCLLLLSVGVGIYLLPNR
T2 sequence (Q9WMX2 2420-3010 C2735Y): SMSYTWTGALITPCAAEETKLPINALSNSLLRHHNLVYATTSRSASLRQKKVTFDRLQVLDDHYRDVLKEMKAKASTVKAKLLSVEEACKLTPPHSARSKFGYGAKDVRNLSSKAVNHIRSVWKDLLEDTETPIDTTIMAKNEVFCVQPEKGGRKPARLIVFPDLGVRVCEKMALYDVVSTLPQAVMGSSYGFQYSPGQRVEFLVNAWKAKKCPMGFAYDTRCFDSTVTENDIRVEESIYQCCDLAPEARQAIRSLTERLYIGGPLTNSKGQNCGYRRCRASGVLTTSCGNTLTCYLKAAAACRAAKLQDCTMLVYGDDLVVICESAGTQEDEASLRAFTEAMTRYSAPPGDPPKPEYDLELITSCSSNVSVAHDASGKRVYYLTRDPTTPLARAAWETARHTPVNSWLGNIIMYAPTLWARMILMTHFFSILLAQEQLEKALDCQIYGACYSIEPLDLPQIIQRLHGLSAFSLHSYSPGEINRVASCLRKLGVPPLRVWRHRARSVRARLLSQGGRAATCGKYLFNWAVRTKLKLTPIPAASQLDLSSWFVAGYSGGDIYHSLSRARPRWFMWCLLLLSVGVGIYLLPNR

Compound: CC1CCCN(S(C)(=O)=O)c2cc3oc(-c4ccc(F)cc4)c(-c4ncc[nH]4)c3cc21 (stereo not drawn) [Compound B120]
- EC50 (HCV 1a): < 10 nM
- Inhibition of HCV NS5B S3865A mutant (HCV NS5B S365A mutant): †††
- Inhibition of HCV N55B C316Y mutant (HCV NS5B C316Y mutant): †††
- EC50 [1, 2]: ≤ 10 nM

Compound: CNC(=O)c1c(-c2ccc(F)cc2)oc2cc3c(cc12)[C@H](C)O[C@H](CO)CN3S(C)(=O)=O [Compound B212]
- Inhibition of HCV NS5B S3865A mutant (HCV NS5B S365A mutant): †††
- Inhibition of HCV N55B C316Y mutant (HCV NS5B C316Y mutant): †††
- EC50 [1, 2]: ≤ 10 nM
- EC50 [1, 3]: < 10 nM

Compound: CNC(=O)c1c(-c2ccc(F)cc2)oc2cc3c(cc12)[C@H](C)O[C@H](CS(C)(=O)=O)CN3S(C)(=O)=O [Compound B214]
- Inhibition of HCV NS5B S3865A mutant (HCV NS5B S365A mutant): †††
- Inhibition of HCV N55B C316Y mutant (HCV NS5B C316Y mutant): †††
- EC50 [1, 3]: < 10 nM

Compound: CNC(=O)c1c(-c2ccc(Oc3ccc(F)cc3)cc2)oc2cc3c(cc12)[C@H](C)O[C@H](CO)CN3S(C)(=O)=O [Compound B232]
- Inhibition of HCV NS5B S3865A mutant (HCV NS5B S365A mutant): †††
- Inhibition of HCV N55B C316Y mutant (HCV NS5B C316Y mutant): †††
- EC50 [1, 2]: ≤ 10 nM
- EC50 [1, 3]: < 10 nM
